One assay addresses T1, COX-2 (Ovis aries, UniProt P79208).
T1 construct: gene PTGS2
T1 sequence (P79208 17-603): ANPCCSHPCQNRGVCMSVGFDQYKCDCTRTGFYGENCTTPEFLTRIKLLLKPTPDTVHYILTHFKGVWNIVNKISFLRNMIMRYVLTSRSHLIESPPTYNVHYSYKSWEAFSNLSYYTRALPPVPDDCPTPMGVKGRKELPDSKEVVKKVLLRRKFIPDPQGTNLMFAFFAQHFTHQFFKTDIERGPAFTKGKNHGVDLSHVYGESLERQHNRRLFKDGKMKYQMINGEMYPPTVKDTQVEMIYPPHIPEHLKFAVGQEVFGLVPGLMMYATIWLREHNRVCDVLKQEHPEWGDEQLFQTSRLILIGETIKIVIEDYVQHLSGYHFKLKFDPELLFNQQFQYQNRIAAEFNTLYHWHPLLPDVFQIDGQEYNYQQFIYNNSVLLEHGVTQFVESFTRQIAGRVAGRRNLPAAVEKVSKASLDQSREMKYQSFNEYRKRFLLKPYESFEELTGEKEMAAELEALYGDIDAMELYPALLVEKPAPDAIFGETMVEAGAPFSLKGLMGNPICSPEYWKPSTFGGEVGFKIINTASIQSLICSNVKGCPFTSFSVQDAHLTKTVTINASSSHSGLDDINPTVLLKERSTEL
Description: colorimetric COX (ovine) inhibitor screening assay kit (Cayman […]); […] maximum inhibition at […]. The format is biochemical.

The target in a further assay is T2, COX-1 (Ovis aries, UniProt P05979).
T2 construct: gene PTGS1
T2 sequence (P05979 25-600): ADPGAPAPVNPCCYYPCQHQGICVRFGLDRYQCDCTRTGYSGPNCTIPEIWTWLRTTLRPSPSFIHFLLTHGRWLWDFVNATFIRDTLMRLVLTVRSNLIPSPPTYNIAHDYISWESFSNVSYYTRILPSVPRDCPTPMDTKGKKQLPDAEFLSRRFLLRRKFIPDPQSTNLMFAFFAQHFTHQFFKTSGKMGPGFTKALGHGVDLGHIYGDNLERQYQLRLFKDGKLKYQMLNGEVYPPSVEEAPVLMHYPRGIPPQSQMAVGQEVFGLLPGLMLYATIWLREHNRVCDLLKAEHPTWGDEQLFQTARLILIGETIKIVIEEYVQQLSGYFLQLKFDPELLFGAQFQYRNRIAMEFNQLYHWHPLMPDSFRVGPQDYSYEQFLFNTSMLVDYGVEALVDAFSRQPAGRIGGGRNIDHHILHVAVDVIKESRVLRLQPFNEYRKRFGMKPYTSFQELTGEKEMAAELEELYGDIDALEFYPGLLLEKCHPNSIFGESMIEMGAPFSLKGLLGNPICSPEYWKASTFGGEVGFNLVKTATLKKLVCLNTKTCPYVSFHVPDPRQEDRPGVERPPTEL
The assay is described as follows: colorimetric COX (ovine) inhibitor screening assay kit (Cayman […]). The format is biochemical.

Some results are limits rather than exact numbers.

A word on the IC50: it is the point on the concentration scale where inhibition reaches its midpoint. Read a low IC50 as higher potency. As to `C[C@@H]1O[C@@H](Oc2c(-c3ccc(O)c(O)c3)oc3cc(O)cc(O)c3c2=O)[C@H](O[C@@H]2OC[C@H](O)[C@H](O)[C@H]2O)[C@H](O)[C@H]1O` [KPFV, quercetin 3-O-α-L-arabinopyranosyl (1 → 2) α-L-rhamnopyranoside], the 50% inhibitory concentration (IC50) was greater than 84 µM on COX-2 and 38 µM against COX-1.

These data come from paper PMC4279175, “Mechanisms Underlying the Antinociceptive, Antiedematogenic, and Anti-Inflammatory Activity of the Main Flavonoid from Kalanchoe pinnata” (Evidence-based Complementary and Alternative Medicine : eCAM, 2014).
